From patent publication EP0004835A1, “Ethanolamine compounds, processes for their preparation, pharmaceutical preparations containing them and their medicinal use” (priority 1978, dated 1979)
Counter-ions that a name gives are not always drawn. Like-named read-outs stand apart in the source and are kept apart here.

What was measured:
[1] = system: electrically induced contractions of the soleus muscle; assay: Tremorogenic effect in anaesthetized cat (soleus muscle, simultaneous recording); type: in vivo; conditions: narcotized cat, i.v.; based on molar dose giving 30 % decrease of electrically induced soleus contractions; terbutaline = 1
Method: (§1) A. Simultaneous recording of bronchospasmolytic effect, tremorogenic effect and heart stimulating effect
(§2) The bronchospasmolytic effect and the tremorogenic effect were measured simultaneously in anaesthetized cat.
(§3) The method used is described in detail by 0 A T Olsson, Acta pharmacol et toxicol 34, 106-114 (1974).
(§4) Cats weighing 2.5-3.5 kg are anaesthetized with pento- barbital (mebumalum NFN) at first by an intraperitoneal injection (30 mg/kg) and afterwards by continuous intravenous infusion to keep the level of anaesthesia constant during the experiment.
The soleus muscle in the hind limb, consisting mainly a -slow contracting fibres, is prepared essentially according to Bowman & Zaimis, J Physiol 144, 92-107 (1958). The muscle is enclosed in a chamber made of a rubbercovered plastic "hair-curler". The entire leg is wrapped in metal foil covered with plastic to keep the temperature constant at 35-36°C (controlled by thermo couples in the.leg). The cat is placed on its back on a thermostatically controlled operation table and the right hind limb fixed, special care being taken not to impede the blood flow.The tendon is cut and attached to a Grass strain gauge (FT 10C). The isometric tension of the muscle is calibrated to 50 g (resting tension) and 500 g (maximal tension). A plexiglas shielded bipolar Pt-electrode is placed on the tibialis nerve, near the soleus. The incomplete tetanic contractions of the muscle are elicited by a square wave pulse stimulation of the nerve by the use of a Grass S48 stimulator. The pulse duration is 0.05 msec, with frequencies selected in the range 8-12 Hz and the strength between 5-8. volts. The stimulation occurs for 1.8 sec every 20 sec.
(§5) The bronchospasmolytic effect is measured as the dose, calculated in moles per kg bodyweight of the test animal, which gives 30 % decrease of the histamine induced bronchospasm. […] The heart stimulating effect is measured as the dose, calculated in moles per kg bodyweight of the test animal, which gives 25 % increase in the heart frequency.

heart frequency = assay: Heart stimulating effect in anaesthetized cat (simultaneous recording); type: in vivo
Method: as §1, §3, §4
Arterial blood pressure is measured with a Statham transducer from a cannulated carotid artery. Heart frequency is monitored by means of a tachometer set to trigger off the R-wave of the electro-cardiogram.
as §5

[2] = system: histamine induced bronchospasm; assay: Bronchospasmolytic effect in anaesthetized cat (simultaneous recording); type: in vivo; conditions: narcotized cat, i.v. (brachial vein); based on molar dose giving 30 % decrease of histamine induced bronchospasm; terbutaline = 1
Method: as §1, §2, §3, §4
The trachea is cannulated and the lungs inflated with room air by means of a constant volume Braun-respirator. The frequency is 15-20 per min and the tidal volume 8-10 ml per kg, or just sufficient to suppress spontaneous breathing movements and to give about 150 ml/kg/min. The change in tidal volume from administered constricting agents is measured as the amount of air overflow from the delivery of a constant volume to a fixed respiration. The pressure is determined by a water (60-70 mm) pressure threshold and respiratory overflow determined by means of a Grass-volumetric pressure transducer PT 5A. Bronchial tone is increased by inhalation of a histamine aerosol generated in a Roth-Petersen nebulizer from a solution containing 0.1-0.3 mg/ml of histamine and made up to 5 % by glycerol. The nebulizer is connected to the inlet of the respirator when bronchospasm is to be produced. When the respiratory overflow has reached an even level, .the compound to be tested for bronchorealxing activity is injected into the brachial vein.
as §5

[3] = system: histamine induced bronchoconstriction; assay: Onset and duration of bronchospasmolytic activity after oral administration, histamine aerosol, unanaesthetized guinea-pigs; type: in vivo; conditions: result in words
Method: These compounds have the structural formulas [drawing 91] (Compound of Example 1) [drawing 92] (Compound of Example 4) The bronchospasmolytic effect was tested as the inhibitory effect on histamine induced bronchoconstriction in unanaesthetized guinea-pigs. The test animals were exposed to a histamine mist generated by a Roth-Petersen nebulizer from a solution of 0.3 mg/ml of histamine-chloride. Guinea-pigs, strain Dunkin-Hartley, both sexes, 160-230 g were used. Saline treated control animals start a forced and irregular breathing after less than 4 minutes exposure to the aerosol. Drug-treated animals sustaining the histamine aerosol 4 minutes without a breathing influence are regarded as protected. The animals were starved for about 15 hours with water ad libitum before the test compound was administered by a stomach tube. Each of the test substances was given in an amount of 4.10^-6 mole/kg bodyweight. Groups of 8-10 animals were tested in the aerosol at 7, 15, 30, 60 and 120 minutes after administration of the test substance. The percentage of the animals which could withstand the aerosol for 4 minutes and for 10 minutes was determined.

[4] = system: histamine induced bronchoconstriction; assay: Bronchospasmolytic activity at oral and subcutaneous administration, histamine aerosol, unanaesthetized guinea-pigs; type: in vivo; conditions: Cavia porcellus, read-out: Dose protecting 50 % of the test animals against the histamine aerosol during more than 4 minutes (ED50)
Method: .The bronchospasmolytic activity of a compound of the invention at oral administration was tested on guinea-pigs. The compound according to Example 1 having the code designation D 2343, was tested. Terbutaline was used as reference substance.
The bronchospasmolytic effect was tested as the inhibitory effect on histamine induced bronchoconstriction in unanaesthetized guinea-pigs.
The test animals were exposed to a histamine mist generated by a Roth-Petersen nebulizer from a solution of 0.3 mg/ml of histamine-chloride.
Guinea-pigs, strain Dunkin-Hartle.y, both sexes, 190-250 g were used. Saline treated control animals start a forced and irregular breathing after less than 4 minutes exposure to the aerosol. Drug-treated animals sustaining the histamine aerosol 4 minutes without a breathing influence are regarded as protected. In the study with oral administration, the animals were starved for about 15 hours with water ad libitum before D 2343 or terbutaline was administered by a stomach tube.
Each compound was administered to 30-40 animals.
In the investigation with oral administration the time from drug administration to exposure of the animal to histamine was 30 minutes.
The ED50 doses are calculated on molar basis in moles per kg bodyweight of the test animal.

a-receptor = a-receptor blocking activity, noradrenaline-induced contraction of rabbit aortic strips; parameters: species or system Albino rabbits; conditions: rabbit aortic strips, compound added 10 minutes before noradrenaline; called EC 50; 6 preparations from 3 animals; read-out: Concentration inhibiting 50 % noradrenaline-induced contraction
Source text: The a-receptor blocking activity of two compounds of the invention was investigated. This effect is relevant in the treatment of asthma. It has been shown, e.g. by Nousiainen et al, Pharmacology 15, 469-477 (1977), that certain compounds having a-blocking effect may potentiate the effects of S-receptor-stimulating agents such as terbutaline.
In the test, the a-receptor blocking substance thymoxamine was used as reference.
Albino rabbits of both sexes (2-3 kg) were used. About 5 cm of the aorta was dissected out as near the arch as possible, transferred to a dish with Krebs solution and cut spirally. Usually 3 preparations were received from the dissected piece of vessel. Each strip was mounted in an organ bath in Krebs solution of 37°C and aerated with carbogen. The load on the preparation was 2 g and the tension changes recorded isometrically on Grass transducer FR03 and polygraph P5.
Noradrenaline, which is a strong a-receptor stimulating agent, exerts a contracting effect on the aortic strips when added to the bath. The a-receptor blocking effect of the test compound is measured by adding the test compound to the organ bath before adding nor-adrenaline.
Noradrenaline solution with a concentration producing 70-80 % of maximal contraction (0.03-0.06 µg/ml) was used. The test compound was added to the organ bath 10 minutes before the addition of noradrenaline.
The results are measured as the concentration of the test compound which inhibits the noradrenaline-induced contraction by 50 % (EC 50).
The EC 50 values are based on tests on 6 preparations obtained from 3 animals.

COc1ccccc1CC(C)(C)NCC(O)c1ccc(O)cc1 (centres unmarked) [D 2331, 1-(4-Hydroxyphenyl)-2-[1,1-dimethyl--2-(2-methoxyphenyl)ethylaminol]ethanol sulfate]
Tremorogenic effect in relation to the tremorogenic effect of terbutaline [1]: 0.011±0.004 | Heart stimulating effect in relation to the heart stimulating effect of terbutaline (heart frequency; narcotized cat, i.v., based on molar dose giving 25 % increase in heart frequency, terbutaline = 1): 0.02 | Bronchospasmolytic effect in relation to the bronchospasmolytic effect of terbutaline [2]: 0.12±0.03

COc1ccccc1CCC(C)(C)NCC(O)c1ccc(OC(=O)C(C)(C)C)cc1 (centres unmarked) [D 2367, 1-[4-Pivaloyloxy-phenyl]-2-[1,1-dimethyl-3-(2-methoxyphenyl)propylaminolethanol sulfate]
Tremorogenic effect in relation to the tremorogenic effect of terbutaline [1]: 0.23 ±0.07 | duration of bronchospasmolytic activity [3]: considerably prolonged compared to the duration of the compound of example 1 | Heart stimulating effect in relation to the heart stimulating effect of terbutaline (heart frequency; cat, in vivo, iv): 0.16±0.05 | Bronchospasmolytic effect in relation to the bronchospasmolytic effect of terbutaline [2]: 0.28±0.07

COc1ccccc1CCC(C)(C)NCC(O)c1ccc(OC(=O)c2ccc(C)cc2)cc1 (centres unmarked) [D 2375, 1-[4-(4-Methylbenzoyloxy)--phenyl]-2-[1,1-dimethyl-3-(2-methoxyphenyl)propylaminolethanol sulfate]
Tremorogenic effect in relation to the tremorogenic effect of terbutaline [1]: 0.18 ±0.03 | Heart stimulating effect in relation to the heart stimulating effect of terbutaline (heart frequency; cat, in vivo, iv): 0.26±0.04 | Bronchospasmolytic effect in relation to the bronchospasmolytic effect of terbutaline [2]: 0.25±0.05

CCOc1ccccc1CCC(C)(C)NCC(O)c1ccc(O)cc1 (centres unmarked) [D 2388, 1-(4-hydroxyphenyl)-2-[1,1--dimethyl-3-(2-ethoxyphenyl)propylamino]-ethanol hydrochloride]
Tremorogenic effect in relation to the tremorogenic effect of terbutaline [1]: 0.8±0.2 | Heart stimulating effect in relation to the heart stimulating effect of terbutaline (heart frequency; cat, in vivo, iv): 1 | Bronchospasmolytic effect in relation to the bronchospasmolytic effect of terbutaline [2]: 1.4±0.2

CC(C)(C)NCC(O)c1cc(O)cc(O)c1 (centres unmarked) [Terbutaline, terbutaline, reference compound]
Tremorogenic effect in relation to the tremorogenic effect of terbutaline [1]: 1 | ED50 ([4]; 0.5 h, Oral administration (stomach tube, starved), 30 minutes before histamine): 5.28 ± 0.86 µmol/kg | ED50 ([4]; sc, 0.25 h, Subcutaneous administration, 15 minutes before histamine challenge): 0.93 ± 0.14 µmol/kg | Heart stimulating effect in relation to the heart stimulating effect of terbutaline (heart frequency; cat, in vivo, iv): 1 | Bronchospasmolytic effect in relation to the bronchospasmolytic effect of terbutaline [2]: 1

CC(=O)Oc1cc(C(C)C)c(OCCN(C)C)cc1C [Thymoxamine, thymoxamine, reference compound]
IC50 (a-receptor): 1500 ± 400 nM

COc1ccccc1CC(C)(C)NCC(O)c1ccc(O)cc1 (centres unmarked) [[drawing]]
IC50 (a-receptor): 500 ± 200 nM
